Experiments:
[1] = target: Apolipoprotein L1 (Homo sapiens, UniProt O14791); assay: Inhibition of APOL1 G1 variant in human HEK293-T-REx cells measured by Thallium assay; type: cell-based
[2] = test system: Trypanosoma brucei brucei; assay: Antitrypanosomal activity against Trypanosoma brucei brucei assessed as trypanosome lysis using recombinant APOL1 protein G1 variant and measured by Alamar blue based fluoresence assay; type: functional, organism-based

Question: For `O=C(NC(CO)C1CC1)[C@H]1C[C@H](c2c(-c3ccc(F)cc3)[nH]c3c(F)cc(F)cc32)C1` (some centres undefined), which IC50 [1] is on record?
Answer: Its IC50 is 0.25 nM.

Question: And the IC50 [2]?
Answer: Its IC50 is 250 nM.

Question: What does the source list for `O=C(N[C@H]1CC[C@@H]1O)[C@H]1C[C@H](c2c(-c3ccc(F)cc3)[nH]c3c(F)cc(F)cc32)C1`?
Answer: IC50 [1]: > 1000 nM; IC50 [2]: 250 nM

Question: `O=C1NCCC1CNC(=O)[C@H]1C[C@H](c2c(-c3ccc(F)cc3)[nH]c3c(F)cc(F)cc32)C1` (some centres undefined) was tested. Which IC50 [1] did it give?
Answer: Its IC50 is > 1000 nM.

Question: And the IC50 [2]?
Answer: Its IC50 is > 1000 nM.

Question: What does the source list for `O=C(N[C@H]1CC[C@H](O)C1)[C@H]1C[C@H](c2c(-c3ccc(F)cc3)[nH]c3c(F)cc(F)cc32)C1`?
Answer: IC50 [1]: > 1000 nM; IC50 [2]: > 1000 nM

Question: Which IC50 [1] does the source give for `O=C1OCC[C@@H]1NC(=O)[C@H]1C[C@H](c2c(-c3ccc(F)cc3)[nH]c3c(F)cc(F)cc32)C1` here?
Answer: Its IC50 is 0.25 nM.

Question: And the IC50 [2]?
Answer: The IC50 was 250 nM.

Question: How did the IC50 [1] turn out when `Cc1nnc(CNC(=O)[C@H]2C[C@H](c3c(-c4ccc(F)cc4)[nH]c4c(F)cc(F)cc43)C2)o1` was run?
Answer: The IC50 was 0.25 nM.

Question: And the IC50 [2]?
Answer: The IC50 was < 250 nM.

Question: Which IC50 [1] does the source give for `O=C([C@H]1C[C@H](c2c(-c3ccc(F)cc3)[nH]c3c(F)cc(F)cc32)C1)N1CCN[C@H](CO)C1` here?
Answer: Its IC50 is > 1000 nM.

Question: And the IC50 [2]?
Answer: Its IC50 is 250 nM.

Question: What does the source list for `O=C(N[C@@H]1CC[C@H](O)C1)[C@H]1C[C@H](c2c(-c3ccc(F)cc3)[nH]c3c(F)cc(F)cc32)C1`?
Answer: IC50 [1]: > 1000 nM; IC50 [2]: > 1000 nM

Question: Which results are given for `CC(O)CNC(=O)[C@H]1C[C@H](c2c(-c3ccc(F)cc3)[nH]c3c(F)cc(F)cc32)C1` (some centres undefined)?
Answer: IC50 [1]: 0.25 nM; IC50 [2]: 250 nM

Question: `O=C([C@H]1C[C@H](c2c(-c3ccc(F)cc3)[nH]c3c(F)cc(F)cc32)C1)N1CC[C@@H]1CO` was tested. Which IC50 [1] did it give?
Answer: Its IC50 is < 250 nM.

Question: What about the IC50 [2] of the same compound?
Answer: The IC50 was < 250 nM.

Question: What does the source list for `O=C(NC1(CO)CC(F)(F)C1)[C@H]1C[C@H](c2c(-c3ccc(F)cc3)[nH]c3c(F)cc(F)cc32)C1`?
Answer: IC50 [1]: 0.25 nM; IC50 [2]: < 250 nM

Question: Which results are given for `CC(C#N)(CO)NC(=O)[C@H]1C[C@H](c2c(-c3ccc(F)cc3)[nH]c3c(F)cc(F)cc32)C1` (some centres undefined)?
Answer: IC50 [1]: 0.25 nM; IC50 [2]: < 250 nM

Question: `NC(=O)[C@H](CO)NC(=O)[C@H]1C[C@H](c2c(-c3ccc(F)cc3)[nH]c3c(F)cc(F)cc32)C1` was tested. Which IC50 [1] did it give?
Answer: The IC50 was 0.25 nM.

Question: And the IC50 [2]?
Answer: Its IC50 is 250 nM.

Question: `O=C(NC[C@@H](O)C(F)(F)F)[C@H]1C[C@H](c2c(-c3ccc(F)cc3)[nH]c3c(F)cc(F)cc32)C1` was tested. Which IC50 [1] did it give?
Answer: Its IC50 is 0.25 nM.

Question: And the IC50 [2]?
Answer: The IC50 was 250 nM.

Question: For `C[C@@H](O)CNC(=O)[C@H]1C[C@H](c2c(-c3ccc(F)cc3)[nH]c3c(F)cc(F)cc32)C1`, which IC50 [1] is on record?
Answer: The IC50 was 0.25 nM.

Question: What about the IC50 [2] of the same compound?
Answer: Its IC50 is 250 nM.

Question: How did the IC50 [1] turn out when `CC1(NC(=O)[C@H]2C[C@H](c3c(-c4ccc(F)cc4)[nH]c4c(F)cc(F)cc43)C2)CCNC1=O` (some centres undefined) was run?
Answer: The IC50 was 0.25 nM.

Question: What about the IC50 [2] of the same compound?
Answer: The IC50 was < 250 nM.

Question: With `O=C(N[C@H]1CC[C@H]1O)[C@H]1C[C@H](c2c(-c3ccc(F)cc3)[nH]c3c(F)cc(F)cc32)C1` as the compound, how does the IC50 [1] read?
Answer: The IC50 was 0.25 nM.

Question: What about the IC50 [2] of the same compound?
Answer: The IC50 was 250 nM.

Question: Which results are given for `C#CC(CO)NC(=O)[C@H]1C[C@H](c2c(-c3ccc(F)cc3)[nH]c3c(F)cc(F)cc32)C1` (some centres undefined)?
Answer: IC50 [1]: 0.25 nM; IC50 [2]: < 250 nM

Question: `CC1CC(NC(=O)[C@H]2C[C@H](c3c(-c4ccc(F)cc4)[nH]c4c(F)cc(F)cc43)C2)C(=O)O1` (some centres undefined) was tested. Which IC50 [1] did it give?
Answer: Its IC50 is > 1000 nM.

Question: What about the IC50 [2] of the same compound?
Answer: The IC50 was > 1000 nM.

Question: For `O=C(NCC1(O)COC1)[C@H]1C[C@H](c2c(-c3ccc(F)cc3)[nH]c3c(F)cc(F)cc32)C1`, which IC50 [1] is on record?
Answer: Its IC50 is 0.25 nM.

Question: And the IC50 [2]?
Answer: Its IC50 is 250 nM.

Question: How did the IC50 [1] turn out when `CC(C)[C@@H](CO)NC(=O)[C@H]1C[C@H](c2c(-c3ccc(F)cc3)[nH]c3c(F)cc(F)cc32)C1` was run?
Answer: Its IC50 is > 1000 nM.

Question: What about the IC50 [2] of the same compound?
Answer: Its IC50 is > 1000 nM.

Question: Which results are given for `C[C@@H](O)[C@H](CO)NC(=O)[C@H]1C[C@H](c2c(-c3ccc(F)cc3)[nH]c3c(F)cc(F)cc32)C1`?
Answer: IC50 [1]: > 1000 nM; IC50 [2]: 250 nM

Question: With `O=C(N[C@@H](CO)C(F)(F)F)[C@H]1C[C@H](c2c(-c3ccc(F)cc3)[nH]c3c(F)cc(F)cc32)C1` as the compound, how does the IC50 [1] read?
Answer: The IC50 was 0.25 nM.

Question: And the IC50 [2]?
Answer: Its IC50 is < 250 nM.

Question: Which IC50 [1] does the source give for `O=C([C@H]1C[C@H](c2c(-c3ccc(F)cc3)[nH]c3c(F)cc(F)cc32)C1)N1CCOC(CO)C1` (some centres undefined) here?
Answer: The IC50 was > 1000 nM.

Question: And the IC50 [2]?
Answer: Its IC50 is > 1000 nM.

Question: How did the IC50 [1] turn out when `NC(=O)[C@H]1CCN(C(=O)[C@H]2C[C@H](c3c(-c4ccc(F)cc4)[nH]c4c(F)cc(F)cc43)C2)C1` was run?
Answer: Its IC50 is > 1000 nM.

Question: What about the IC50 [2] of the same compound?
Answer: The IC50 was > 1000 nM.

Question: How did the IC50 [1] turn out when `O=C(N[C@@H]1CCC[C@@H]1O)[C@H]1C[C@H](c2c(-c3ccc(F)cc3)[nH]c3c(F)cc(F)cc32)C1` was run?
Answer: Its IC50 is > 1000 nM.

Question: What about the IC50 [2] of the same compound?
Answer: The IC50 was 250 nM.

Question: With `O=C(NC1(CO)CCOC1)[C@H]1C[C@H](c2c(-c3ccc(F)cc3)[nH]c3c(F)cc(F)cc32)C1` (some centres undefined) as the compound, how does the IC50 [1] read?
Answer: The IC50 was < 250 nM.

Question: And the IC50 [2]?
Answer: The IC50 was < 250 nM.

Question: How did the IC50 [1] turn out when `O=C1CC[C@@H](NC(=O)[C@H]2C[C@H](c3c(-c4ccc(F)cc4)[nH]c4c(F)cc(F)cc43)C2)C1` was run?
Answer: The IC50 was > 1000 nM.

Question: And the IC50 [2]?
Answer: Its IC50 is > 1000 nM.

Question: Which results are given for `Cn1ncc(CNC(=O)[C@H]2C[C@H](c3c(-c4ccc(F)cc4)[nH]c4c(F)cc(F)cc43)C2)n1`?
Answer: IC50 [1]: 0.25 nM; IC50 [2]: < 250 nM

Question: For `CN(C(=O)[C@H]1C[C@H](c2c(-c3ccc(F)cc3)[nH]c3c(F)cc(F)cc32)C1)C1COCC1O` (some centres undefined), which IC50 [1] is on record?
Answer: Its IC50 is > 1000 nM.

Question: And the IC50 [2]?
Answer: Its IC50 is > 1000 nM.

Question: What does the source list for `O=C(NCc1cnoc1)[C@H]1C[C@H](c2c(-c3ccc(F)cc3)[nH]c3c(F)cc(F)cc32)C1`?
Answer: IC50 [1]: 0.25 nM; IC50 [2]: < 250 nM

Question: What does the source list for `O=C([C@H]1C[C@H](c2c(-c3ccc(F)cc3)[nH]c3c(F)cc(F)cc32)C1)N1CC2(CC(O)C2)C1`?
Answer: IC50 [1]: > 1000 nM; IC50 [2]: > 1000 nM

From ChEMBL document CHEMBL5052856, “Inhibitors of apol1 and methods of using same” (2021)
